Where two headings read alike, the source gives them in different places.
Key:
[1] = system: T1, tubulin; experiment: In vitro microtubule disassembly assay; type: biochemical; settings: tubulin and rhodamine-tubulin, 37° C. for 20 minutes, fluorescence microscopy
T1 construct: fused on or other part: rhodamine label on part of the tubulin (a fluorescent tracer, not a protein)
Experimental: In Vitro Microtubule Disassembly Assay
Reagent A was made by mixing 250 mg/25 mL tubulin and rhodamine-tubulin (60 mg/6 mL), purchased from Cytoskeleton, with 20 mL, 10 mM GTP at 0° C. Reagent B was made by dissolving the compounds (various concentrations, 2 mL in DMSO) in 2×assay buffer (200 mL, 80 mM K PIPES (pH 7.5), 5 mM MgCl2, 1 mM EDTA). Two mL of Reagent A and two mL of Reagent B were mixed in a […] and incubated at 37° C. for 20 minutes. Then, 100 uL of 60% glycerol was added and mixed by gently pipetting the mixture up and down three times. Two uL of the mixture was placed onto a glass slide, covered with a coverslip, and observed by fluorescence microscopy (400×magnification, rhodamine channel).

[2] = system: Human U937 leukemia cells; experiment: Growth inhibition of cancer cells (MTS); type: cell-based; settings: 490 nm, read-out: IC50 (Cancer cell growth inhibition)
Experimental: Growth Inhibition of Cancer Cells
Human U937 leukemia cells were obtained from ATCC. Cells were grown in proliferation media (RPMI-1640 plus 2.38 g/L HEPES, 4.5 g/L glucose, 1.5 g/L NaHCO3, 0.3 g/L Glutamine, 0.11 g Na Pyruvate) plus 20% fetal calf serum. Cells were kept at 37° C., 5% CO2, at a concentration of 0.2-1×10^6 cells/ml. To a 100 μl cell suspension in 96-well plate (1×10^4 cells/well), 20 μl of MTS tetrazolium reagent solution (Promega) in RPMI -1640 medium was added for 2 hours at 37° C. in a 5% CO2 atmosphere. After the incubation period, the reduced formazan product was measured at 490 nm using a plate reader.

[3] = Homo sapiens, U-937, MTS tetrazolium reagent

## COc1ccc(CNc2nc(NCc3ccc(OC)cc3)nc(NC3CCCC3)n2)cc1 [Compound S1]
[1]
  IC50: 8 µM
[2]; [3]
  IC50: 10 µM

## COc1ccc(CNc2nc(NCc3ccc(OC)cc3)nc(NCC3CCCO3)n2)cc1 (stereo not drawn) [Compound S17]
[1]
  IC50: < 20 µM
[2]; [3]
  IC50: 10 µM

## COc1ccc(CNc2nc(NCc3ccc(OC)cc3)nc(NC3CC3)n2)cc1 [Compound S22]
[1]
  IC50: < 20 µM
[2]; [3]
  IC50: 25 µM

## CCC(C)Nc1nc(NCc2ccc(OC)cc2)nc(NCc2ccc(OC)cc2)n1 (stereo not drawn) [Compound S25]
[1]
  IC50: < 20 µM
[2]; [3]
  IC50: 25 µM

## CNc1nc(NCc2ccc(OC)cc2)nc(NCc2ccc(OC)cc2)n1 [Compound S33]
[1]
  IC50: < 20 µM
[2]; [3]
  IC50: 18 µM

## COc1ccc(CNc2nc(NCCO)nc(NCc3ccc(OC)cc3)n2)cc1 [Compound S34]
[1]
  IC50: < 20 µM
[2]; [3]
  IC50: 20 µM

## COc1ccc(CNc2nc(NCc3ccc(OC)cc3)nc(NC3CCC3)n2)cc1 [Compound S43]
[1]
  IC50: < 20 µM
[2]; [3]
  IC50: 12 µM

## CCNc1nc(NCc2ccc(OC)cc2)nc(NCc2ccc(OC)cc2)n1 [Compound S51]
[1]
  IC50: < 20 µM
[2]; [3]
  IC50: 20 µM

## COc1ccc(CNc2nc(NCc3ccc(OC)c(OC)c3)nc(NC3CCCCC3)n2)cc1 [Compound S53]
[1]
  IC50: 2.5 µM
[2]; [3]
  IC50: 1 µM

## COc1ccc(CNc2nc(NCc3ccc(OC)cc3)nc(NC3CCCCC3)n2)cc1 [Compound S77, N-Cyclohexyl-N′,N″-bis-(4-methoxybenzyl)-[1,3,5]Triazine-2,4,6-triamine]
[1]
  IC50: < 20 µM
[2]; [3]
  IC50: 5 µM

## COc1ccc(CNc2nc(NCc3ccc(OC)cc3)nc(N3CCOCC3)n2)cc1 [Compound S78, N′,N″-Bis-(4-methoxybenzyl)-6-morpholin-4-yl-[1,3,5]Triazine-2,4-diamine]
[1]
  IC50: < 20 µM
[2]; MTS tetrazolium reagent
  IC50: 12 µM

## COc1ccc(CNc2nc(NCc3ccc(OC)cc3)nc(NC(C)C)n2)cc1 [Compound S84, N-Isopropyl-N′,N″-bis-(4-methoxybenzyl)-[1,3,5]Triazine-2,4,6-triamine]
[1]
  IC50: < 20 µM
[2]; [3]
  IC50: 9 µM
